Test results reported in ChEMBL document CHEMBL1201862, “PubChem BioAssay data set” (2004).
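48-hour exposure; five concentrations; linearly interpolated endpoints. GI50 marks 50% less growth.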 Activity calls are given as the source filed them. No stated cut-off is given here; in the data, active = GI50 up to about 1.1 µM and inactive = higher.

How the values were obtained:
Assay in all cases: inhibition of tumour cell growth, NCI panel, 48 h
SNB-75 = tested on: SNB-75
HOP-62 = tested on: HOP-62
NCI-H23 = tested on: NCI-H23
NCI-H522 = tested on: NCI-H522
DLD-1 = tested on: DLD-1
SNB-19 = tested on: SNB-19
U-251 = tested on: U-251
LOX IMVI = tested on: LOX IMVI
SN12C = tested on: SN12C
SNB-78 = tested on: SNB-78
SF-539 = tested on: SF-539
M14 = tested on: M14
NCI-H226 = tested on: NCI-H226
DMS-273 = tested on: DMS-273
CCRF-CEM = tested on: CCRF-CEM
MOLT-4 = tested on: MOLT-4
HL-60 = tested on: HL-60
RXF 393 = tested on: RXF 393
KM-20L2 = tested on: KM-20L2
HCT-116 = tested on: HCT-116
SK-MEL-28 = tested on: SK-MEL-28
OVCAR-4 = tested on: OVCAR-4
NCI-H460 = tested on: NCI-H460
RPMI-8226 = tested on: RPMI-8226
K562 = tested on: K562
LXFL 529 = tested on: LXFL 529
HCC 2998 = tested on: HCC 2998
786-0 = tested on: 786-0
HOP-92 = tested on: HOP-92
PC-3 = tested on: PC-3
SW-620 = tested on: SW-620
UACC-62 = tested on: UACC-62
MDA-MB-435 = tested on: MDA-MB-435
MCF7 = tested on: MCF7
A549 = tested on: A549
NCI/ADR-RES = tested on: NCI/ADR-RES
OVCAR-5 = tested on: OVCAR-5
SR = tested on: SR
MDA-MB-231 = tested on: MDA-MB-231
HCT-15 = tested on: HCT-15
KM12 = tested on: KM12
COLO 205 = tested on: COLO 205
CAKI-1 = tested on: CAKI-1
TK-10 = tested on: TK-10
Hs-578T = tested on: Hs-578T
A498 = tested on: A498
ACHN = tested on: ACHN
T47D = tested on: T47D
OVCAR-8 = tested on: OVCAR-8
SK-MEL-5 = tested on: SK-MEL-5
DU-145 = tested on: DU-145
EKVX = tested on: EKVX
BT-549 = tested on: BT-549
MDA-N = tested on: MDA-N
IGROV-1 = tested on: IGROV-1
SF-295 = tested on: SF-295
OVCAR-3 = tested on: OVCAR-3
SK-OV-3 = tested on: SK-OV-3
UO-31 = tested on: UO-31
HT-29 = tested on: HT-29
Malme-3M = tested on: Malme-3M
SF-268 = tested on: SF-268
UACC-257 = tested on: UACC-257
SK-MEL-2 = tested on: SK-MEL-2
M19-MEL = tested on: M19-MEL
XF498 = tested on: XF498

SMILES: Cc1cnc(-c2ccccc2)o1
- GI50 (SNB-75): > 100 µM (inactive)
- GI50 (HOP-62): > 100 µM (inactive)
- GI50 (NCI-H23): > 100 µM (inactive)
- GI50 (NCI-H522): > 100 µM (inactive)
- GI50 (DLD-1): > 100 µM (inactive)
- GI50 (SNB-19): > 100 µM (inactive)
- GI50 (U-251): > 100 µM (inactive)
- GI50 (LOX IMVI): > 100 µM (inactive)
- GI50 (SN12C): > 10 µM (inactive)
- GI50 (SNB-78): > 100 µM (inactive)
- GI50 (SF-539): > 100 µM (inactive)
- GI50 (M14): > 100 µM (inactive)
- GI50 (NCI-H226): > 100 µM (inactive)
- GI50 (DMS-273): 52.6 µM (inactive)
- GI50 (CCRF-CEM): > 100 µM (inactive)
- GI50 (MOLT-4): > 100 µM (inactive)
- GI50 (HL-60): > 100 µM (inactive)
- GI50 (RXF 393): > 100 µM (inactive)
- GI50 (KM-20L2): > 100 µM (inactive)
- GI50 (HCT-116): > 100 µM (inactive)
- GI50 (SK-MEL-28): > 100 µM (inactive)
- GI50 (OVCAR-4): > 100 µM (inactive)
- GI50 (NCI-H460): > 100 µM (inactive)
- GI50 (RPMI-8226): > 100 µM (inactive)
- GI50 (K562): > 100 µM (inactive)
- GI50 (LXFL 529): > 100 µM (inactive)
- GI50 (HCC 2998): > 100 µM (inactive)
- GI50 (786-0): > 100 µM (inactive)

SMILES: Cn1c(-c2cccs2)cc(-c2cccs2)c1-c1cccs1
- GI50 (HOP-92): > 100 µM (inactive)
- GI50 (SNB-75): 53.3 µM (inactive)
- GI50 (HOP-62): > 100 µM (inactive)
- GI50 (NCI-H23): 13.6 µM (inactive)
- GI50 (NCI-H522): 21.3 µM (inactive)
- GI50 (PC-3): > 100 µM (inactive)
- GI50 (SW-620): > 100 µM (inactive)
- GI50 (SNB-19): > 100 µM (inactive)
- GI50 (U-251): > 79.3 µM (inactive)
- GI50 (LOX IMVI): 35.8 µM (inactive)
- GI50 (UACC-62): 11.9 µM (inactive)
- GI50 (MDA-MB-435): 53.2 µM (inactive)
- GI50 (MCF7): 2.82 µM (inactive)
- GI50 (A549): > 96.6 µM (inactive)
- GI50 (SN12C): > 100 µM (inactive)
- GI50 (NCI/ADR-RES): > 100 µM (inactive)
- GI50 (OVCAR-5): > 100 µM (inactive)
- GI50 (SR): 13.6 µM (inactive)
- GI50 (MDA-MB-231): 98.9 µM (inactive)
- GI50 (HCT-15): 21.8 µM
- GI50 (KM12): 35.7 µM (inactive)
- GI50 (COLO 205): 8.95 µM (inactive)
- GI50 (SF-539): > 100 µM (inactive)
- GI50 (CAKI-1): > 100 µM (inactive)
- GI50 (M14): > 79.8 µM (inactive)
- GI50 (NCI-H226): > 100 µM (inactive)
- GI50 (TK-10): > 100 µM (inactive)
- GI50 (CCRF-CEM): 67 µM (inactive)
- GI50 (Hs-578T): 44.5 µM (inactive)
- GI50 (MOLT-4): 38.5 µM (inactive)
- GI50 (A498): > 100 µM (inactive)
- GI50 (ACHN): 75 µM (inactive)
- GI50 (T47D): 2.78 µM (inactive)
- GI50 (HL-60): 33 µM (inactive)
- GI50 (OVCAR-8): > 100 µM (inactive)
- GI50 (SK-MEL-5): 14.5 µM (inactive)
- GI50 (DU-145): > 100 µM (inactive)
- GI50 (RXF 393): 54.2 µM (inactive)
- GI50 (EKVX): 39.2 µM (inactive)
- GI50 (HCT-116): 34.6 µM (inactive)
- GI50 (SK-MEL-28): > 100 µM (inactive)
- GI50 (BT-549): > 100 µM (inactive)
- GI50 (OVCAR-4): 39.1 µM (inactive)
- GI50 (NCI-H460): 78.7 µM (inactive)
- GI50 (MDA-N): 55.2 µM (inactive)
- GI50 (IGROV-1): 51.8 µM (inactive)
- GI50 (RPMI-8226): 20.4 µM (inactive)
- GI50 (SF-295): > 81.3 µM (inactive)
- GI50 (OVCAR-3): 43.8 µM (inactive)
- GI50 (SK-OV-3): > 100 µM (inactive)
- GI50 (UO-31): > 96.4 µM (inactive)
- GI50 (HT-29): > 100 µM (inactive)
- GI50 (Malme-3M): > 100 µM (inactive)
- GI50 (K562): 51.8 µM (inactive)
- GI50 (SF-268): > 81.8 µM (inactive)
- GI50 (HCC 2998): 37.8 µM (inactive)
- GI50 (UACC-257): 16.5 µM (inactive)
- GI50 (786-0): > 100 µM (inactive)
- GI50 (SK-MEL-2): 44 µM (inactive)

SMILES: COc1ccc(C2C(Cl)C(=O)N2NC(=O)c2ccc(NC(C)=O)cc2)cc1 (centres undefined)
- GI50 (HOP-92): > 100 µM (inactive)
- GI50 (SNB-75): > 100 µM (inactive)
- GI50 (HOP-62): > 100 µM (inactive)
- GI50 (NCI-H23): > 100 µM (inactive)
- GI50 (NCI-H522): > 100 µM (inactive)
- GI50 (DLD-1): > 100 µM (inactive)
- GI50 (SW-620): > 100 µM (inactive)
- GI50 (SNB-19): > 100 µM (inactive)
- GI50 (U-251): > 100 µM (inactive)
- GI50 (LOX IMVI): > 100 µM (inactive)
- GI50 (UACC-62): > 100 µM (inactive)
- GI50 (A549): > 100 µM (inactive)
- GI50 (SN12C): > 100 µM (inactive)
- GI50 (OVCAR-5): > 100 µM (inactive)
- GI50 (SNB-78): > 100 µM (inactive)
- GI50 (HCT-15): > 100 µM
- GI50 (COLO 205): > 100 µM (inactive)
- GI50 (SF-539): > 100 µM (inactive)
- GI50 (CAKI-1): > 100 µM (inactive)
- GI50 (M14): > 100 µM (inactive)
- GI50 (NCI-H226): > 100 µM (inactive)
- GI50 (DMS-273): > 100 µM (inactive)
- GI50 (TK-10): > 100 µM (inactive)
- GI50 (CCRF-CEM): > 100 µM (inactive)
- GI50 (MOLT-4): > 100 µM (inactive)
- GI50 (A498): > 100 µM (inactive)
- GI50 (ACHN): > 100 µM (inactive)
- GI50 (M19-MEL): > 100 µM (inactive)
- GI50 (HL-60): > 100 µM (inactive)
- GI50 (OVCAR-8): > 100 µM (inactive)
- GI50 (SK-MEL-5): > 100 µM (inactive)
- GI50 (XF498): > 100 µM (inactive)
- GI50 (RXF 393): > 100 µM (inactive)
- GI50 (KM-20L2): > 100 µM (inactive)
- GI50 (EKVX): > 100 µM (inactive)
- GI50 (HCT-116): > 100 µM (inactive)
- GI50 (SK-MEL-28): > 100 µM (inactive)
- GI50 (OVCAR-4): > 100 µM (inactive)
- GI50 (NCI-H460): > 100 µM (inactive)
- GI50 (IGROV-1): > 100 µM (inactive)
- GI50 (SF-295): > 100 µM (inactive)
- GI50 (OVCAR-3): > 100 µM (inactive)
- GI50 (SK-OV-3): > 100 µM (inactive)
- GI50 (UO-31): > 100 µM (inactive)
- GI50 (HT-29): > 100 µM (inactive)
- GI50 (Malme-3M): > 100 µM (inactive)
- GI50 (K562): > 100 µM (inactive)
- GI50 (SF-268): > 100 µM (inactive)
- GI50 (LXFL 529): > 100 µM (inactive)
- GI50 (UACC-257): > 100 µM (inactive)
- GI50 (786-0): > 100 µM (inactive)
- GI50 (SK-MEL-2): > 100 µM (inactive)
